Data taken from US10519247B2, “Targeting HER2 and HER3 with bispecific antibodies in cancerous cells” (Board of Regents, The University of Texas System, priority 2013, dated 2019).

Key:
Type in all cases: cell-based, human
SK-BR-3 cells [1] = assay: Proliferation assay (MTS), SK-BR-3; settings: 5 days
Experimental: (§1) Cells were plated in 96 well plates at a density of 2,500 cells per well and incubated overnight. […] Antibodies were used at a concentration of 50 nM unless otherwise indicated. Dimethyl sulfoxide or phosphate buffered saline (PBS) were used as vehicle controls for lapatinib or HRG-β1/antibodies, respectively. After 5 days of incubation in a 37° C. 5% CO2 incubator, cell proliferation was quantitated using CellTiter 96 AQeous One Solution Proliferation Assay kit (Promega, catalog no. G3580) according to the manufacturer's instructions.

BT-474 cells [2] = assay: Proliferation assay (MTS), BT-474; settings: 5 days
Experimental: as §1

HCC1419 cells = assay: Proliferation assay (MTS), HCC1419; settings: 5 days
Experimental: as §1

SK-BR-3 cells [3] = assay: Flow cytometry of cell surface HER2 and HER3, SK-BR-3; settings: 1 μM lapatinib, 24 hours
Experimental: (§2) Cells were treated with 1 μM lapatinib (Lap), medium (Med) or vehicle control (DMSO) for 24 hours.
(§3) The methodology used to determine HER2 and HER3 levels by flowcytometry is as follows, unless otherwise indicated. Antibodies were labeled with either Alexa Fluor® 647 carboxylic acid, succinimidyl ester (Life Technologies, Catalog # A-20173) or Alexa Fluor® 488 carboxylic acid, succinimidyl ester (Life Technologies, Catalog # A-10235) using methods recommended by the manufacturer. Following the labeling reaction, antibodies were extensively dialyzed against PBS to remove unincorporated Alexa dye. Cells were seeded at a density of 100,000 cells per well in 24 well plates, incubated overnight, and subsequently treated with either 1 μM lapatinib or vehicle control (DMSO) for 24 hours at 37° C. in a CO2 incubator. […] Following incubation, cells were trypsinized, washed, and suspended in PBS. Stained cells were analyzed using a BD FACScalibur and data processed using FlowJo (Tree Star).

BT-474 cells [4] = assay: Flow cytometry of cell surface HER2 and HER3, BT-474; settings: 1 μM lapatinib, 24 hours
Experimental: as §2, §3

BT-474 cells [5] = assay: Immunoblotting of cell lysates, BT-474
Experimental: (§4) Cells cultured to near confluence in 6 well plates were treated with lapatinib, HRG-β1 or antibodies as for proliferation assays. Following one or 24 hours incubation, cells were lysed using RIPA buffer (50 mM Tris, 150 mM NaCl, 0.5% sodium deoxycholate, 1% Triton X-100, 0.1% sodium dodecyl sulfate, 2 ug/mL aprotinin, 2 ug/mL leupeptin, 1 ug/mL pepstatin A, and 0.4 mg/mL pefabloc SC PLUS). Lysates were centrifuged for 20 minutes at 14,600 rpm at 4° C. and supernatants were collected. Protein concentrations in each lysate were determined using the BCA protein assay reagent (Pierce, catalog no. 23223). Total lysates were fractionated by SDS-PAGE and transferred onto polyvinylidene difluoride (PVDF) membranes (Millipore, catalog no. IPVH00010) or nitrocellulose membranes (Bio-Rad, catalog no 162.0145). Membranes were incubated with 5% bovine serum albumin in Tris-buffered saline with 0.1% Tween (TBST, pH 8.0) for 1 hour following transfer to block non-specific binding sites. Blocked membranes were incubated with primary antibodies overnight at 4° C. with agitation. Prior to incubation with the secondary antibodies conjugated to horseradish peroxidase, blots were washed three times (10 minutes/wash) with TB ST. Following incubation with secondary antibodies for 1 hour and washing, bound secondary antibody was detected using chemiluminescent detection regent (GE Healthcare, catalog no. RPN 2209/AF).

SK-BR-3 cells [6] = assay: Immunoblotting of cell lysates, SK-BR-3
Experimental: as §4

SK-BR-3 cells [7] = assay: Fluorescence microscopy of intracellular trafficking; settings: 50 nM
Source text: The combined pulse plus chase times are indicated on the left margin. Anti-HER3 or HER2/HER3 antibodies were detected with Alexa 555-labeled secondary antibody (pseudocolored red in overlay) and anti-EEA-1 antibody with Alexa 647-labeled secondary antibody (pseudocolored green in overlay). […] Scale bars=2 μm.
Cells were fixed, permeabilized and stained for LAMP-1. Anti-HER3 or HER2/HER3 antibodies were detected with Alexa 555-labeled secondary antibody (pseudocolored red in overlay) and anti-LAMP-1 antibody with Alexa 488-labeled secondary antibody (pseudocolored green in overlay). […] Scale bars=2 μm.
For fixation, cells were treated with 1.7% (w/v) paraformaldehyde for 10 minutes at 37° C. and then permeabilized with 0.05% (v/v) saponin for 10 minutes at room temperature in PBS. […] After blocking for 30 minutes with goat serum (Sigma-Aldrich, catalog no. G6767), bound primary antibodies were detected by incubating cells with the following secondary antibody conjugates for 25 minutes at room temperature: Alexa 555-labeled goat anti-human IgG (H+L) (Life Technologies, catalog no. A21433), Alexa 647-labeled goat anti-mouse IgG (H+L) (Life Technologies, catalog no. A21236) and Alexa 488-labeled goat anti-rabbit IgG (H+L) (Life Technologies, catalog no. A11034). […]

[8] = 50 nM antibody + heregulin 6.25 nM
[9] = lapatinib 50 nM-1 μM, no heregulin
[10] = 1 μM lapatinib + heregulin 6.25 nM
[11] = 50 nM antibody + 1 μM lapatinib + heregulin 6.25 nM
[12] = 50 nM antibody, no heregulin, no lapatinib
[13] = 50 nM antibody, one hour, versus trastuzumab, pertuzumab, TAb6 or PAb6, not sustained at 24 hours

Molecule: heregulin [reference compound]
- proliferation in the presence of heregulin alone (SK-BR-3 cells [1]; [8]): reduced proliferation
- proliferation in the presence of heregulin alone (BT-474 cells [2]; heregulin 6.25 nM): trend towards heregulin-stimulated proliferation
- proliferation in the presence of heregulin alone (HCC1419 cells; heregulin 6.25 nM): increased proliferation

Molecule: CS(=O)(=O)CCNCc1ccc(-c2ccc3ncnc(Nc4ccc(OCc5cccc(F)c5)c(Cl)c4)c3c2)o1 [lapatinib, reference compound]
- HER2 levels on the plasma membrane (SK-BR-3 cells [3]): upregulation
- HER3 levels on the plasma membrane (SK-BR-3 cells [3]): upregulation
- proliferation, lapatinib alone (SK-BR-3 cells [1]; [9]): inhibition of proliferation
- proliferation, lapatinib plus heregulin (SK-BR-3 cells [1]; lapatinib + heregulin 6.25 nM): growth inhibition was ablated
- HER2 levels on the plasma membrane (BT-474 cells [4]): not upregulated
- HER3 levels on the plasma membrane (BT-474 cells [4]): upregulation
- inhibition of HER3, Akt and Erk phosphorylation, lapatinib plus heregulin (BT-474 cells [5]; [10]): partially reversed
- HER3, Akt and Erk phosphorylation, lapatinib alone (BT-474 cells [5]; 1 μM lapatinib, 1 or 24 hours): potent inhibition
- inhibition of HER3, Akt and Erk phosphorylation, lapatinib plus heregulin (SK-BR-3 cells [6]; [10]): partially reversed
- HER3, Akt and Erk phosphorylation, lapatinib alone (SK-BR-3 cells [6]; 1 μM lapatinib, 1 or 24 hours): potent inhibition
- proliferation, lapatinib alone (BT-474 cells [2]; [9]): inhibition of proliferation
- proliferation, lapatinib plus heregulin (BT-474 cells [2]; lapatinib + heregulin 6.25 nM): growth inhibition was ablated

B1: Ab6: bivalent anti-HER3 antibody which competes with heregulin for binding to HER3 (antibody, V domains shown)
VH: QVQLLESGGGLVQPGGSLRLSCAASGFTFSHYVMAWVRQAPGKGLEWVSSISSSGGWTLYADSVKGRFTISRDNSKNTLYLQMNSLRAEDTAVYYCTRGLKMATIFDYWGQGTLVTVSS
VL: DIQLTQPASVSGSPGQSITISCTGTSSDVGSYNVVSWYQQHPGKAPKLIIYEVSQRPSGVSNRFSGSKSGNTASLTISGLQTEDEADYYCCSYAGSSIFVIFGGGTKVTVL
- proliferation in the presence of heregulin and lapatinib (SK-BR-3 cells [1]; [11]): anti-proliferative effects
- proliferation (SK-BR-3 cells [1]; [12]): reduced proliferation
- localization following 15 minutes of treatment (SK-BR-3 cells [7]): internalized into early endosomes
- localization within one hour of treatment (SK-BR-3 cells [7]; 15 minutes pulse, 45 minutes chase): present in LAMP-1+ lysosomes
- pErk levels at one hour (BT-474 cells [5]; [13]): lower
- pAkt levels in the presence of heregulin (SK-BR-3 cells [6]; 50 nM antibody + heregulin 6.25 nM, 24 hours): a reduction
- pErk levels at one hour (SK-BR-3 cells [6]; [13]): lower
- proliferation in the presence of heregulin and lapatinib (BT-474 cells [2]; [11]): anti-proliferative effects
- proliferation in the presence of heregulin (BT-474 cells [2]; [8]): ablated the inhibitory effects
- proliferation (BT-474 cells [2]; [12]): the effects were not significant
- proliferation in the presence of heregulin and lapatinib (HCC1419 cells; [11]): anti-proliferative effects
- proliferation in the presence of heregulin (HCC1419 cells; [8]): ablated the inhibitory effects
- proliferation (HCC1419 cells; [12]): reduced proliferation
